Laboratory results: patent US20250152660A1, “SCO-spondin-derived polypeptides for treating biological barriers dysfunction” (AXOLTIS PHARMA, priority 2021, published 2025)
“And” between values parts separate entries of the source, which are not always exact repeats. Equal values may be shown once. Bridges are numbered along the chain shown (N, C = ends). Where no end group is shown, it is not given here.

Tests used:
[1] = tested on: Claudin-5 at tight junction of mouse brain endothelial bEnd.3 cells; experiment: Claudin-5 immunocytochemistry at tight junction in mouse brain endothelial cell cultures; format: cell-based
Protocol: To understand the effect of NX218 on the TEER and permeability of mouse brain endothelial cells in examples 3 and 4, the levels of the tight junction protein Claudin-5 were assessed using immunocytochemistry.
Mouse brain endothelial cells (bEnd.3, American Type Culture Collection) were cultured in DMEM supplemented with 10% fetal FBS and 2 mM sodium pyruvate in a 5% CO2 incubator at 37° C.
bEnd.3 cells were seeded on 1% fibronectin-coated Nunc Lab-Tek II Chamber Slides in culture medium (1×10^5 cells per well in 300 μL). Two days after seeding, cells were treated with vehicle or NX218 (1, 10 and 100 μM) for 1, 2 or 3 days. Cells were then fixed for 10 min at room temperature (RT) with 4% paraformaldehyde in phosphate buffered saline (PBS), washed twice with PBS and incubated with 5% normal goat serum and 0.05% Triton X-100 in PBS for 1 h at RT before overnight incubation with polyclonal rabbit anti-claudin-5 ( 1/100; 34-1600, Invitrogen) at 4° C. Cells were then washed three times with PBS and incubated with goat anti-rabbit Cy3 secondary antibody ( 1/500; ab6939, Abcam) for 2 h at RT and counterstained with Hoechst 33258 to visualize nuclei. The slide was removed from the chamber and mounted with Aqua Poly/Mount before visualization by confocal laser scanning/microscopy. Claudin-5 immunoreactivity (intensity) at membrane localization was finally quantified to evaluate Claudin-5 protein levels. The data are expressed as a percentage of the control condition.
A second independent experiment using the protocol described at example 5 was performed. Pooling the data from the 2 experiments (the first experiment was done in triplicate, the 2nd in duplicate, n=5) improves the statistical power and allow to reach statistical significance for a tendency observed at 72 hours timepoint.

[2] = tested on: mouse brain endothelial bEnd.3 cells; experiment: Transendothelial electrical resistance (TEER) of mouse brain endothelial cell monolayer on Transwell inserts; format: cell-based; details: for TEER change relative to control, Average / TEER change relative to control: bEnd.3
Protocol: To determine the effect of NX218 on transendothelial electrical resistance (TEER) of mouse brain endothelial cells, cells were grown on a semi-permeable membrane inserted in culture wells in presence or absence of NX218 and the TEER was recorded using electrodes placed on each side of the membrane and a resistance meter.
Mouse brain endothelial cells (bEnd.3, American Type Culture Collection) were cultured in Dulbecco's modified Eagle's Medium (DMEM) supplemented with 10% fetal bovine serum (FBS) and 2 mM sodium pyruvate in a 5% CO2 incubator at 37° C.
bEnd.3 cells were grown on 6.5-mm-diameter, 0.4-μm-pore, polyester membrane HTS Transwell inserts (5×10^4 cells per well containing 200 μL and 800 μL of culture medium in the apical and basolateral compartments respectively). Three days after seeding, cells were treated with vehicle or NX218 (1, 10 and 100 μM) for 1, 2 or 3 days. TEER values were measured using an EVOM resistance meter fitted with “chopstick” electrodes. One electrode was placed in the apical chamber and another one in the basolateral chamber. Before measurements, chambers were replaced with fresh medium.

## W-S-G-W-S-S-C-S-R-S-C-G (WSGWSSCSRSCG; disulfide 7-11 (inferred)) [NX218]
[1]; NX218 10 μM, 72 hours, bEnd.3, pooled data of 2 experiments (Table 12), individual replicates N1-N7
  Expression of Claudin-5 at tight junction: 71.70 % of Control and 116.80 % of Control and 122.30 % of Control and 113.50 % of Control and 97.80 % of Control and 75.30 % of Control and 87.00 % of Control
[1]; NX218 100 μM, 24 hours, bEnd.3, average of N1-N6
  Expression of Claudin-5 at tight junction, Average: 180.5 % of Control
[1]; NX218 100 μM, 24 hours, bEnd.3, individual replicates N1-N6
  Expression of Claudin-5 at tight junction: 173.3 % of Control and 212.5 % of Control and 249.5 % of Control and 129 % of Control and 161.7 % of Control and 157.1 % of Control
[1]; NX218 100 μM, 48 hours, bEnd.3, average of N1-N6
  Expression of Claudin-5 at tight junction, Average: 98.79 % of Control
[1]; NX218 100 μM, 48 hours, bEnd.3, individual replicates N1-N6
  Expression of Claudin-5 at tight junction: 88.39 % of Control and 55.18 % of Control and 80.87 % of Control and 122.7 % of Control and 115.5 % of Control and 130.1 % of Control
[1]; NX218 100 μM, 72 hours, bEnd.3, first experiment (Table 9), average of N1-N4
  Expression of Claudin-5 at tight junction, Average: 106.6 % of Control
[1]; NX218 100 μM, 72 hours, bEnd.3, first experiment (Table 9), individual replicates N1-N4
  Expression of Claudin-5 at tight junction: 121.8 % of Control and 116 % of Control and 81.03 % of Control and 107.7 % of Control
[1]; NX218 100 μM, 72 hours, bEnd.3, pooled data of 2 experiments (Table 12), average of N1-N7
  Expression of Claudin-5 at tight junction, Average: 119.10 % of Control
[1]; NX218 100 μM, 72 hours, bEnd.3, pooled data of 2 experiments (Table 12), individual replicates N1-N7
  Expression of Claudin-5 at tight junction: 134.20 % of Control and 124.40 % of Control and 109.30 % of Control and 120.30 % of Control and 130.70 % of Control and 105.10 % of Control and 109.40 % of Control
[1]; NX218 at 100 μM, pooled experiments, 72 hours
  Claudin-5 levels, result in words: Increases of Claudin-5 levels were maintained for at-least 72 hours
[1]; after 2 or 3 days treatment (Tables 8, 9)
  Claudin-5 levels, result in words: levels were similar between control and NX218 conditions
[2]; 10 and 100 μM for 1, 2 or 3 days, compared with vehicle-treated monolayer
  Resistance (TEER), result in words: significantly increased in a dose dependent manner
[2]; FIG. 1, 1, 10, 100 μM for 24 h, 48 h or 72 h
  TEER: increases the transendothelial electrical resistance of mouse brain endothelial cell monolayer in a dose-dependent manner
[2]; NX218 1 μM, 24 hours, average of N1-N6, control = 1
  TEER change relative to control, Average: 1.095
[2]; NX218 1 μM, 24 hours, individual replicates N1-N6
  TEER change relative to control: 1.096 and 1.109 and 0.9761 and 1.051 and 1.197 and 1.139
[2]; NX218 1 μM, 48 hours, average of N1-N9, control = 1
  TEER change relative to control, Average: 1.089
[2]; NX218 1 μM, 48 hours, individual replicates N1-N9
  TEER change relative to control: 1.149 and 1.219 and 1.194 and 0.9888 and 1.006 and 1.056 and 0.9841 and 1.196 and 1.011
[2]; NX218 1 μM, 72 hours, average of N1-N9, control = 1
  TEER change relative to control, Average: 0.9718
[2]; NX218 1 μM, 72 hours, individual replicates N1-N9
  TEER change relative to control: 0.9966 and 1.022 and 1.007 and 1.003 and 0.9525 and 0.9474 and 0.9315 and 0.9406 and 0.9452
[2]; NX218 10 μM, 24 hours, average of N1-N6, control = 1
  TEER change relative to control, Average: 1.128
[2]; NX218 10 μM, 24 hours, individual replicates N1-N6
  TEER change relative to control: 1.027 and 1.068 and 1.072 and 1.178 and 1.212 (2×)
[2]; NX218 10 μM, 48 hours, average of N1-N9, control = 1
  TEER change relative to control, Average: 1.203
[2]; NX218 10 μM, 48 hours, individual replicates N1-N9
  TEER change relative to control: 1.219 (2×) and 1.334 and 1.016 (2×) and 1.053 and 1.28 and 1.381 and 1.312
[2]; NX218 10 μM, 72 hours, average of N1-N9, control = 1
  TEER change relative to control, Average: 1.196
[2]; NX218 10 μM, 72 hours, individual replicates N1-N9
  TEER change relative to control: 1.27 and 1.255 and 1.239 and 1.187 (3×) and 1.151 and 1.146 (2×)
[2]; NX218 100 μM, 24 hours, average of N1-N6, control = 1
  TEER change relative to control, Average: 1.307
[2]; NX218 100 μM, 24 hours, individual replicates N1-N6
  TEER change relative to control: 1.218 and 1.283 and 1.142 and 1.454 and 1.373 and 1.37
[2]; NX218 100 μM, 48 hours, average of N1-N9, control = 1
  TEER change relative to control, Average: 1.461
[2]; NX218 100 μM, 48 hours, individual replicates N1-N9
  TEER change relative to control: 1.547 and 1.404 and 1.498 and 1.223 and 1.284 and 1.173 and 1.725 and 1.72 and 1.571
[2]; NX218 100 μM, 72 hours, average of N1-N9, control = 1
  TEER change relative to control, Average: 1.446
[2]; NX218 100 μM, 72 hours, individual replicates N1-N9
  TEER change relative to control: 1.467 and 1.553 and 1.624 and 1.436 and 1.457 and 1.584 and 1.237 and 1.306 and 1.347
